Assay results reported in patent US12173029B2, “Antiviral prodrugs, pharmaceutical formulations, and methods” (priority 2020, dated 2024).
Read-outs that look alike come from different tables or passages of the source.

Tests used:
Human Coronavirus 229E [1] = format: cell-based; settings: HCoV-229E in MRC-5 cells, three days, CPE by MTT
SARS-CoV-2 [2] = assay: Example 6 SARS-CoV-2 infection assay in Huh7.5 cells (nucleocapsid immunofluorescence); format: cell-based; settings: SARS CoV-2, Huh7.5 cells, MOI 0.1, 48 hours, percent infected cells
SARS-CoV-2 [3] = assay: Example 6 SARS-CoV-2 infection assay in TMPRSS2-Vero cells (nucleocapsid immunofluorescence); format: cell-based; settings: SARS CoV-2, TMPRSS2-Vero cells, MOI 0.01, 32 hours, percent infected cells
VERO E6 cells = assay: Example 4 generation of remdesivir triphosphate in Vero E6 cells (LC/MS/MS); format: in vitro ADME, monkey
Protocol: In this example, Vero E6 cells were plated in 6 well plates at about 3.4×10^5 cells per well in 2 mL of media (DMEM, 10% FBS).
Cells were then incubated at 37° C. for 24 hours. Media was then aspirated and replaced with 2 ml of control media (fresh Dulbecco's Modified Eagle's Medium (DMEM), 10% FBS) or 2 mL of media with drug at a concentration of 1 μM. Cell were incubated with the various drugs for 48 hours. The media was aspirated, the cells rinsed twice with phosphate-buffered saline (PBS), trypsinized for 5 minutes with 1 mL ATV, triturated and removed to a 15 mL centrifuge tube, rinsed with 1 mL PBS, which was also then removed to the 15 mL centrifuge tube, and the cells were triturated again. Cells were counted in a Reichert hemocytometer using two 10 μL samples, and the number of cells in each sample was determined.
Cells were centrifuged at 1200 rpm for 10 minutes, diluent aspirated and the pellet resuspended in 250 μL of methanol/distilled water (70/30) and analyzed by LC/MS/MS. The results, which are depicted at FIG. 3, were in picomoles/10^6 cells and are the average of two or three determinations.

[4] = format: in vivo; settings: Syrian hamsters, sodium salt
Protocol: ODBG-P-RVn in 0.1M sodium carbonate/bicarbonate buffer, pH 9.0, was administered to Syrian Hamsters by oral gavage every 12 hours for seven days. ODBG-P-RVn was present as the sodium salt.
FIG. 5A and FIG. 5B depict the seven day oral pharmacokinetics in Syrian hamsters. Syrian hamsters were given vehicle or ODBG-P-RVn by oral gavage every 12 hours for 7 days. Groups of 3 animals received vehicle or drug at doses of 16.9 and 13.2 mg/kg. Animals were weighed daily and monitored for clinical signs.
Analytical Methods: ODBG-P-RVn: Hamster plasma samples (10 μL) containing ODBG-P-RVn and K2EDTA as the anticoagulant were added to polypropylene tubes containing water (100 μL), internal standard solution (10 μL; 1,000 ng/mL of ODE-P-RVn in ACN:DMF (1:1, v/v)), and 10 μL of ACN:DMF (1:1, v/v). The solutions were mixed, then acidified with phosphoric acid, 85% w/v:water (1:19, v/v; 10 μL), mixed, then diluted with 200 μL of IPA, mixed, then diluted with 500 μL of water, and mixed. […] The ODBG-P-RVn extracts were analyzed using an Agilent 1200 HPLC system (Agilent, Santa Clara, CA) coupled to an API5500 mass analyzer (SCIEX, Foster City, CA). […]
The solutions were mixed and centrifuged at 16,000 g for five minutes. […] The GS-441524 extracts were analyzed using an Acquity UPLC system (Waters, Milford, MA) coupled to a G2-S QTof mass analyzer (Waters, Milford, MA). […]

[5] = test system: USA WA-01 strain of SARS CoV-2; assay: Example 2 anti-coronavirus activity in Vero E6 cells (qPCR spike RNA); format: cell-based; settings: Vero C1008, SARS CoV-2 USA WA-01, Vero E6 cells, MOI 0.1, 48 hours
Protocol: Ten thousand Vero E6 cells were seeded in 100 microliters of culture medium in 96 well plates. The following day serial two-fold dilutions of antiviral compounds or the DMSO-containing vehicle were added to each well. The USA WA-01 strain of SARS CoV-2 was added to each well at a multiplicity of infection of 0.1 thirty minutes later. Cells were incubated for 48 hours, washed twice in PBS and lysed with TRIzol. RNA was extracted using Directzol micro RNA columns. RNA was made into cDNA and assayed for the SARS CoV-2 spike protein and for a housekeeping gene (RPLPO) RNA by qPCR. Data represents the average of duplicate wells. Cellular cytotoxicity was also measured in VERO E6 cells. […] Cytotoxicity (CC50) was assessed using a commercially available MTT assay.

[6] = test system: SARS-CoV-2 isolate USA-WA1/2020; assay: Example 3 SARS-CoV-2 infection in Vero E6 cells (qRT-PCR Spike RNA); format: cell-based; settings: for EC50 / EC90: Severe acute respiratory syndrome coronavirus 2, Vero C1008, SARS-CoV-2 USA-WA1/2020, Vero E6 cells, MOI 0.01, 48 hours, mean±SD
[7] = test system: SARS-CoV-2 isolate USA-WA1/2020; assay: Example 7 SARS-CoV-2 infection in PSC-human lung cells (qRT-PCR); format: cell-based
[8] = test system: SARS-CoV-2 isolate USA-WA1/2020; assay: Example 7 SARS-CoV-2 infection in Calu-3 cells (qRT-PCR); format: cell-based; settings: for EC50 / EC90: Severe acute respiratory syndrome coronavirus 2, SARS-CoV-2, Calu-3 cells, MOI 0.01, 48 hours
[9] = test system: SARS-CoV-2 isolate USA-WA1/2020; assay: Example 7 SARS-CoV-2 infection in Huh7.5 cells (qRT-PCR); format: cell-based; settings: for EC50 / EC90: Severe acute respiratory syndrome coronavirus 2, SARS-CoV-2, Huh7.5 cells, MOI 0.01, 48 hours, qRT-PCR, Example 7
[10] = test system: SARS-CoV-2 isolate USA-WA1/2020; assay: Example 7 SARS-CoV-2 infection in Caco-2 cells (qRT-PCR); format: cell-based
SARS-CoV-2 [11] = assay: Example 7 SARS-CoV-2 antiviral activity, summary across the five cell types; format: cell-based; settings: Severe acute respiratory syndrome coronavirus 2; SARS-CoV-2, five cell types of Example 7; read-out: EC50, range across cell types
[12] = Example 7 cytotoxicity, summary across all cell lines; format: cell-based; settings: monkey, human; five cell types of Example 7, 48 hours
Protocol: The cytotoxicity of each compound by incubating each of these cell lines with serial dilutions of each compound from 1.23 μM to 100 μM for 48 hours. […] The selectivity index of ODBG-P-RV ranged from 295 to 699 in the five cell types tested in this example).

Human Coronavirus 229E [13] = assay: Example 8 human coronavirus 229E in MRC-5 cells (CPE, MTT); format: cell-based
Protocol: Human Coronavirus 229E (ATCC) was propagated and infectious units quantified by TCID50 using MRC-5 cells. For antiviral testing, approximately 10^4 MRC-5 cells were seeded per well in EMEM (10% FCS) at 37 C in a 96 well plate overnight. Medium from each well was removed and cells were infected with 100 TCID50 virus in 100 μL medium for two hours.
Cells were washed one time with medium and then compounds or controls added at the indicated concentrations. After three days, CPE was observed under microscope and quantified using an MTT cell proliferation assay kit (Abcam) read on an ELx800, Universal Microplate reader (BIO-TEK Instruments, INC). The % Inhibition was calculated as (Atv−Acv)/(Acd−Acv)×100% where Atv indicates the absorbance of the test compounds with virus infected cells and A, and Aca indicate the absorbance of the virus control and the absorbance of the cell control, respectively. The average half-maximal effective concentration (EC50) was defined as the concentration which achieved 50% inhibition of virus-induced cytopathic effects.
FIG. 4A and FIG. 4B: ODBG-P-RVn (15d) inhibits the human Alphacoronavirus 229E. […] Cells were infected with 229E for 2 hours followed by treatment with the indicated dose of the indicated drug for 72 hours. The relative CPE was determined by measuring cell viability using an MTT assay.

[14] = Example 8 cytotoxicity in MRC-5 cells (CellTiter-Glo); format: cell-based; settings: human
Protocol: FIG. 4B depicts the cytotoxicity in MRC-5 cells incubated in the presence of the indicated drug at the indicated concentration for 72 hours, after which cell viability was measured by the CellTiter-Glo assay. Data points indicate the averages from 3 independent experiments performed in duplicate. Error bars represent the standard error mean (SEM).

[15] = after intravenous infusion; cited from earlier work
[16] = Example 7 cell viability assay (CellTiter-Glo) in Huh7.5 cells; settings: human
[17] = Example 7 cell viability assay (CellTiter-Glo) in Vero E6 cells; settings: monkey
[18] = Example 7 cell viability assay (CellTiter-Glo) in PSC-human lung cells
[19] = test system: SARS-CoV-2 isolate USA-WA1/2020; assay: Example 7 SARS-CoV-2 infection in Vero E6 cells (qRT-PCR); format: cell-based; settings: Severe acute respiratory syndrome coronavirus 2, Vero C1008, SARS-CoV-2, Vero E6 cells, MOI 0.01, 48 hours
[20] = Example 2 cellular cytotoxicity in Vero E6 cells (MTT); settings: monkey
[21] = Severe acute respiratory syndrome coronavirus 2, SARS-CoV-2, PSC-human lung cells, MOI 0.01, 48 hours
[22] = Severe acute respiratory syndrome coronavirus 2, SARS-CoV-2, Caco-2 cells, MOI 0.01, 48 hours

Compound: 1-O-octadecyl-2-O-benzyl-sn-glycerol-benzyl-phospho-RVn [Compound 16]
- EC50 (Human Coronavirus 229E [1]): 1500 ± 930 nM
- EC90 (Human Coronavirus 229E [1]): 4.27 ± 0.88 µM
- EC50 (SARS-CoV-2 [2]): 3.54 ± 0.583 µM
- EC90 (SARS-CoV-2 [2]): 16.4 ± 5.98 µM
- EC50 (SARS-CoV-2 [3]): 7.44 ± 0.818 µM
- EC90 (SARS-CoV-2 [3]): 15.3 ± 5.91 µM

Compound: CCCCCCCCCCCCCCCCCCOC[C@H](COP(=O)(O)OC[C@H]1O[C@@](C#N)(c2ccc3c(N)ncnn23)[C@H](O)[C@@H]1O)OCc1ccccc1 [Compound 15d, 1-O-octadecyl-2-O-benzyl-glyceryl-sn-3-phospho-RVn]
- synthesis of remdesivir triphosphate (RVn-TP) (VERO E6 cells; exposure to 1 micromolar drug, up to 48 hours): increased progressively to 48 hours
- tolerability / clinical signs ([4]; oral gavage every 12 hours for seven days, 16.9 and 13.2 mg/kg): well tolerated, and no adverse clinical signs were noted
- time for plasma levels to fall by 50% ([4]; oral gavage): about 5 hours

Compound: CCC(CC)COC(=O)[C@H](C)N[P@](=O)(OC[C@H]1O[C@@](C#N)(c2ccc3c(N)ncnn23)[C@H](O)[C@@H]1O)Oc1ccccc1 [RDV, Remdesivir]
- EC50 [5]: 3160 nM
- EC90 [5]: 5.5 µM
- EC50 [6]: 4.6 µM
- EC90 [6]: 8.9 ± 4.9 µM
- levels of RVn-TP (VERO E6 cells; 1 μM drug, at 8 and 24 hours): below the level of quantification
- EC50 [7, 21]: 140 nM
- EC90 [7, 21]: 230 nM
- EC50 [8]: 230 nM
- EC90 [8]: 310 nM
- EC50 [9]: 60 nM
- EC90 [9]: 120 nM
- EC50 [10, 22]: 170 nM
- EC90 [10, 22]: 280 nM
- EC50 (SARS-CoV-2 [11]): 60 to 1130 nM
- CC50 at 48 h [12]: ≥ 15.2 µM
- EC50 (Human Coronavirus 229E [13]; MRC5, 229E in MRC-5 cells, 72 hours, CPE by MTT, Example 8): 40 nM
- EC90 (Human Coronavirus 229E [13]; MRC5, 72 h): 260 nM
- CC50 at 72 h [14]: > 50 µM
- persistence in plasma at virologically significant levels [15]: less than 2 hours
- CC50 at 48.5 h [16]: 15.2 µM
- CC50 at 48.5 h [17]: 101 µM
- CC50 at 48.5 h [18]: 32.7 µM

Compound: N#C[C@@]1(c2ccc3c(N)ncnn23)O[C@H](CO)[C@@H](O)[C@H]1O [RVn, 2-C-(4-aminopyrrolo[2,1-f][1,2,4]triazin-7-yl)-2,5-anhydro-D-altrononitrile]
- EC50 [5]: 1560 nM
- EC90 [5]: 2.69 µM
- Selectivity ([6]; Selectivity index, CC50/EC50, Vero E6 cells, Example 3): >58.8
- EC50 [6]: 1.7 µM
- EC90 [6]: 3.2 ± 0.77 µM
- EC50 [19]: 380 nM
- EC90 [19]: 770 nM
- Selectivity ([7]; Selectivity index CC50/EC50, PSC-human lung cells): >135
- EC50 [7, 21]: 740 nM
- Selectivity ([8]; Selectivity index CC50/EC50, Calu-3 cells): >666
- EC50 [8]: 150 nM
- EC90 [8]: 180 nM
- Selectivity ([9]; Selectivity index CC50/EC50, Huh7.5 cells): >312
- EC50 [9]: 320 nM
- EC90 [9]: 730 nM
- Selectivity ([10]; Selectivity index CC50/EC50, Caco-2 cells): >104
- EC50 [10, 22]: 960 nM
- CC50 [20]: > 50 µM
